{"source": "paper PMC8481687", "about": "“Anti-diabetic Potential of a Stigmasterol From the Seaweed Gelidium spinosum and Its Application in the Formulation of Nanoemulsion Conjugate for the Development of Functional Biscuits” (Frontiers in Nutrition, 2021)", "molecular_target": "α-amylase", "assay": "starch hydrolysis, dinitrosalicylic acid assay at […] nm", "format": "biochemical"}
{"smiles": "CC[C@H](/C=C/[C@@H](C)[C@H]1CC[C@H]2[C@@H]3CC=C4C[C@@H](O)CC[C@]4(C)[C@H]3CC[C@]12C)C(C)C", "note": "[stigmasterol]", "values": [{"measurement": "IC50", "result": 89.27, "unit": "µg/mL"}]}
